According to patent publication US20090084166A1, “Sensors comprising a chelated metal ion linker layer” (priority 2007, published 2009):

Columns and labels:
[1] = target: carbonic anhydrase II (CAII) (Homo sapiens, UniProt P00918); test: SPR biomolecular interaction assay of CBS with immobilized CAII; assay type: binding; details: CBS 40 μM to 80 nM in phosphate-buffered saline, run over CAII surface
Text: During use, light source 142 directs a light beam 150 toward prism 120 by way of suitable optics. Light beam 150 passes into and through light-transmissive support 105 and reflects off metal layer 107. Reflected light 152 is received by optical detector 144. Optical detector 144 passes a corresponding signal to the detection circuitry 146. The ligand 102 is contacted with sample and may bind to analytes in the sample. Binding of analyte and ligand 102 causes a change in a property of the reflected light 152 that can be detected by optical detection system 130. Upon detection of the change in a property of the reflected light 152, the detection system may produce a sample-responsive signal. The resultant sample responsive signal may then be employed to assess the presence of analyte in the sample. In certain embodiments, the sample-responsive signal is in the form of a “sensorgram.” A sensorgram is a plot of response (measured in “resonance units” or “RU”) as a function of time. An increase of RU corresponds to an increase of mass on the sensor surface. […]
The ligand, (CAII) is immobilized on the surface layer as stated above in “ligand attachment”. […] Binding curves are produced of the analyte interaction with the enzyme and binding rates are calculated.

[2] = Non-specific binding test of CAII on the sensor surface without EDC/NHS activation; details: CAII flowed over surface 101 without prior activation with EDC/NHS
Text: Present on the activated dielectric surface 110 is a chelated metal ion linking layer 104. […] (RU stands for resonance unit and is directly proportional to the concentration of biomolecules on a surface. 1 RU is ca. 1 pg/mm^2.)
To test for non-specific binding, a ligand (CAII) was flowed over surface 101 through chamber 136 in the same manner as above but without any prior activation with EDC/NHS.

Row | non-specific binding [2] | Substance | Response units (binding to immobilized CAII) [1]
1 |  | carboxybenzenesulfonamide [CBS] | proportional to the concentration of the analyte and are cleanly seen above the baseline
2 | ca. 10 RU | carbonic anhydrase II [CAII] | 
